Data from PMC3071284 (Bioorganic & medicinal chemistry, 2011).

Experiments:
T. cruzi-infected mice = conditions: cited from earlier work
[1] = cited from earlier work
[2] = target: T1, T. cruzi farnesyl diphosphate synthase (TcFPPS) (Trypanosoma cruzi, UniProt Q8WS26); conditions: cited from earlier work
T1 sequence (Q8WS26 64-425 limits assumed): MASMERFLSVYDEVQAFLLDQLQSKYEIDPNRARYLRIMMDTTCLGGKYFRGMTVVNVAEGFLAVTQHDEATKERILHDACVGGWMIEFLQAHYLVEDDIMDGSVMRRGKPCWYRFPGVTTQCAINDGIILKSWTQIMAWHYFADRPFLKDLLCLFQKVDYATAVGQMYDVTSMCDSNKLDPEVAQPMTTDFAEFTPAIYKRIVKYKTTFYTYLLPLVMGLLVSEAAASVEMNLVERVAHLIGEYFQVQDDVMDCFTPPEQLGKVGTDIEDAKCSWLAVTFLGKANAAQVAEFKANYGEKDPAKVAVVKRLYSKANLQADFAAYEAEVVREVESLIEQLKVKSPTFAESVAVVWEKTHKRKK

T. gondii tachyzoites = T. gondii tachyzoites growth inhibition assay; format: cell-based, Toxoplasma gondii; conditions: result in words

Compound: O=P(O)(O)C(O)(Cc1cccnc1)P(=O)(O)O [risedronate]
- survival of T. cruzi-infected mice (T. cruzi-infected mice): significantly increase survival

Compound: CN(C)c1ccc(C(=C2C=CC(=[N+](C)C)C=C2)c2ccc(N(C)C)cc2)cc1 [Crystal violet]
- carcinogenicity in in vivo assays [1]: carcinogenic

Compound: CCCCCCNCC(P(=O)(O)O)P(=O)(O)O [Compound 8]
- mode of inhibition of TcFPPS [2]: competitive inhibitor

Compound: CCCCCCCCCCNCC(P(=O)(O)O)P(=O)(O)O [Compound 24, 1-[(n-Dec-1-ylamino)ethyl] 1,1-bisphosphonic Acid]
- antiparasitic activity against T. gondii cells (T. gondii tachyzoites): practically devoid of antiparasitic activity
